According to patent US20160202234A1, “METHOD FOR EVALUATING, VIA BIODOSIMETRY, THE I[…] RECEIVED BY A PERSON SUBJECTED TO IONIZING RADIATION” (ACUBENS, priority 2013, published 2016):

Tested on: two different cell lines, respectively sensitive S and resistant R
Test: ratio of apoptotic cells as a function of NCS concentration, compared with irradiation dose
Assay type: cell-based
Settings: concentration of 1 nM of neocarzinostatin
Description: FIG. 27 is a graph showing the change in the amount of apoptotic cells in a mixture as a function of the quantity of NCS in this mixture,
FIG. 28 is a graph showing the change in the number of apoptotic cells as a function of the irradiation dose received by an individual,
The substance used is for example neocarzinostatin (NCS). […] These graphs made it possible to determine in particular that a concentration of 1 nM of neocarzinostatin is equivalent to, that is to say produces the same effect as, an irradiation dose of 1.2 Gy. Several hair samplings are carried out on the same region of an individual, along with a plurality of blood samplings. Two of the samples are subjected to the action of NCS at a known dose, for example equivalent to 1 Gy, in reaction wells in a plate. Each sample can be treated and analysed, as described previously. One of the two samples is analysed immediately at the same time as a sample that has not received treatment, and the second is analysed after a given period Δt, for example 1 hour.

Substance: neocarzinostatin
- irradiation dose equivalent to (produces the same effect as) the neocarzinostatin concentration: 1.2 Gy
